Columns and labels:
[1] = system: animal model with a collagen induced arthritis (CIA); experiment: Evaluation of arthritis index in animal model with collagen induced arthritis; format: in vivo, mouse; conditions: CIA DBA/1J mice, daurinol 20 mg/kg intravenously, total of 9 times, observed until 7th week
[2] = system: animal model with collagen induced arthritis (CIA); experiment: Histological examination of joints of CIA animals; format: in vivo, mouse; conditions: injected intravenously, three weeks after, H&E, Toluidine blue, Safranin O
[3] = system: animal model with collagen induced arthritis (CIA); experiment: Expression of inflammatory cytokines in joints of CIA animals (tissue staining); format: in vivo, mouse; conditions: injected intravenously, three weeks after
[4] = system: bone marrow macrophages (BMM); experiment: Inhibitory effect on the differentiation of osteoclasts (TRAP+ multinucleate cells); format: cell-based, mouse; conditions: RANKL 50 ng/mL, M-CSF 30 ng/mL, 4 days
Text: ICR mice (6 to 9 week-old male) were subjected to cervical dislocation and disinfected with 70% ethanol. The skin in the tibia area was cut off and the muscles attached thereto were detached. The distal center of tibia was cut off and tibia was ablated by dislocating patella. Both ends of the bone were slightly cut off and a 25G injection needle was indwelled therein on one end and α-MEM was flowed thereon and bone marrow cells were thereby collected into a test tube. After centrifugation, the resultant was suspended in α-MEM and red blood cells were removed by adding two volumes of Gey's solution. After centrifugation, the resultant was resuspended in α-MEM including 10% FBS and cultured to be used.
The cultured bone marrow cells were cultured overnight with macrophage colony stimulating factor (“M-CSF”, hereinafter) (10 ng/mL), and the suspension cells were cultured further with M-CSF (30 ng/mL) for 3 days, and thereby bone marrow macrophages (“BMM”) were formed. The thus-formed BMM was collected and cultured in 1×10^5 cells/well in the presence of receptor activator of NF-κB ligand (RANKL) (50 ng/mL), which is an osteoclast differentiation factor, and M-CSF (30 ng/mL) for 4 days. […] The resultant was observed under a microscope and TRAP+ cells having three or more nuclei were determined as multinucleate osteoclasts.

[5] = system: splenocytes cell line; experiment: MTT assay for cytotoxicity; format: cell-based; conditions: splenocytes cell line 2×10^5 cells, 96-well plate
Procedure: Additionally, MTT assay was performed for the observation of cytotoxicity by daurinol treatment. To this end, splenocytes cell line (2×10^5 cells) were plated on a 96-well plate, and daurinol was treated with MTT reagent and wrapped with aluminum foil, and reacted at 37° C. for 4 hours. After 4 hours, the crystals formed were dissolved in DMSO and the absorbance was measured using the ELISA reader.

[6] = system: phospho STAT3 (p705, p′727); experiment: Western blot of phospho STAT3 in CD4+T cells; format: cell-based; conditions: CD4+T cells of normal mouse, daurinol 5 μM, anti-CD3 0.5 μg/mL, 3 days
Procedure: For the observation of changes in intracellular cell signaling factors treated with daurinol, a western blot analysis was performed. For this purpose, CD4+T cells were isolated from a normal mouse, treated with daurinol (5 μM) in a condition already treated with anti-CD3 antibodies (0.5 μg/mL), cultured for 3 days, and the cells were dissolved and proteins were extracted therefrom. Then, the extracted proteins were subjected to SDS-PAGE electrophoresis, and the proteins were electrically transferred onto a nitrocellulose membrane, subjected to a blocking reaction with 5% skim milk for 1 hour, reacted by attaching primary antibodies to STAT3, STAT3p705, STAT3p727, and phospho m-TOR thereto, reacting again by attaching secondary antibodies to the same, and sensitized onto a Kodak X-ray using enhanced chemilunimoecence (ECL), and thereby the protein expression levels of the genes were analyzed.

[7] = system: CD4+ T cells; experiment: Inhibition of T cell proliferation in allogenic reaction in vitro; format: cell-based, mouse; conditions: daurinol 0.5, 2, 10 and 20 μM
Procedure: (§1) For the confirmation of the effect of the daurinol compound on the inhibition of T cell proliferation and the expression amount of IL-17, the CD4+ T cells (2×10^5 cells) of a normal recipient (Balb/c, responder), and the T cell-removed splenocytes (2×10^5 cells) derived from a recipient (homogenic) or the splenocytes (2×10^5 cells) derived from a donor (C57BL/6, stimulator, allogenic) exposed to irradiation were added to each well of a 96-well round bottom plate, mixed, and cultured in vitro. In particular, the T cell proliferation and the secretion of IL-17 when an allogenic reaction was untreated with daurinol or treated with daurinol at 0.5 μM, 2 μM, 10 μM, and 20 μM, respectively, were observed.

[8] = system: CD4+ T cells; experiment: IL-17 expression in allogenic reaction in vitro; format: cell-based, mouse; conditions: daurinol 0.5, 2, 10 and 20 μM
Procedure: as §1

[9] = system: VEGF; experiment: VEGF expression in the intestinal tissues of IBD mouse model; format: in vivo; conditions: animal (mouse) model with inflammatory bowel disease
Text: (§2) For the confirmation of the effect of the daurinol compound of the present invention on the treatment of inflammatory bowel disease, the present inventors first constructed an animal model with induced inflammatory bowel disease. For the experimental model, C57BL/6(H-2kb) mice were used. For the construction of an animal model with induced inflammatory bowel disease, the mice were fed with 3.5% dextran sulfate sodium (DSS) and water for a week, thereby preparing an animal model with induced inflammatory bowel disease.
(§3) The present inventors divided the experimental animals into a normal control group, a group of an animal model with induced inflammatory bowel disease, and a group of an animal model with induced inflammatory bowel disease treated with daurinol or a TNF-α inhibitor, and the group treated with daurinol was administered orally and intrarectally with daurinol (20 mg/kg) from the 4th day after the induction with the disease.

[10] = system: VEGF; experiment: VEGF expression in human large intestine cell line HT-29; format: cell-based
[11] = system: mouse with induced inflammatory bowel disease (IBD); experiment: Antibodies expressed in the sera of IBD animal model; format: in vivo; conditions: IBD mice treated with daurinol
Text: as §2, §3
Sera were isolated from a mouse with induced inflammatory bowel disease (IBD), and mice treated with daurinol and TNF-α inhibitor, respectively. The levels of IL-17, IFNγ, IL-6, and the like, which are inflammatory cytokines, in the isolated sera were measured by ELISA assay.
Accordingly, since daurinol can reduce not only the expression of the inflammatory cytokines but also the formation of antibodies in an animal model with inflammatory bowel disease, daurinol can inhibit and control the immune response to autoantibodies and the B cell-related inflammation responses.

COc1cc2c(-c3ccc4c(c3)OCO4)c3c(cc2cc1O)COC3=O [daurinol]
arthritis index [1]: almost no increase in arthritis index
degree of destruction of joints and cartilage [2]: not exhibited to be severe
expression level of IL-1beta in joints [3]: significantly reduced
expression level of IL-6 in joints [3]: significantly reduced
expression level of IL-17 in joints [3]: significantly reduced
expression level of TNF-α in joints [3]: significantly reduced
differentiation of osteoclasts reduced by (number of TRAP+ multinucleate cells) ([4]; daurinol 2 μM): ≥ 60%
differentiation of osteoclasts (number of TRAP+ multinucleate cells) ([4]; daurinol 10 μM): no differentiation of osteoclasts was observed
cytotoxicity according to the concentration of daurinol (MTT) [5]: no significant cytotoxicity
expression of phospho STAT3 (p705, p′727) [6]: significant decrease
T cell proliferation [7]: inhibited T cell proliferation in a dose-dependent manner
expression of IL-17 [8]: inhibited the expression of IL-17
VEGF expression in the intestinal tissues [9]: significantly inhibited the VEGF expression
activity of VEGF, analysis in terms of inhibition (%) [10]: significantly inhibits the activity of VEGF
inhibitory effect against the VEGF expression, compared to comparators [10]: greater inhibitory effect against the VEGF expression compared to those of TNF-α inhibitor and merformin
level of IgG1 antibodies in sera [11]: reduced the levels
level of IgG2 antibodies in sera [11]: reduced the levels
level of IgG3 antibodies in sera [11]: reduced the levels
level of IgG antibodies in sera [11]: reduced the levels
